According to PubChem BioAssay (NCI):
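Assay format: 96-well plates, 48-hour exposure. GI50 marks 50% less growth. Definition used: TGI = concentration required for complete inhibition of growth.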

Key:
Assay in all cases: NCI anticancer screen, dose series, 48 h
UACC-257 melanoma = tested on: UACC-257 melanoma
M14 melanoma = tested on: M14 melanoma
ACHN renal = tested on: ACHN renal
RPMI-8226 leukemia = tested on: RPMI-8226 leukemia
HCC-2998 colon = tested on: HCC-2998 colon
IGROV1 ovarian = tested on: IGROV1 ovarian
CCRF-CEM leukemia = tested on: CCRF-CEM leukemia
SN12C renal = tested on: SN12C renal
HS 578T breast = tested on: HS 578T breast
SF-539 CNS = tested on: SF-539 CNS
HT29 colon = tested on: HT29 colon
HOP-62 NSCLC = tested on: HOP-62 NSCLC
TK-10 renal = tested on: TK-10 renal
SK-MEL-2 melanoma = tested on: SK-MEL-2 melanoma
UO-31 renal = tested on: UO-31 renal
MALME-3M melanoma = tested on: MALME-3M melanoma
NCI-H460 lung = tested on: NCI-H460 lung
MDA-MB-435 = tested on: MDA-MB-435
SW-620 colon = tested on: SW-620 colon
HOP-92 NSCLC = tested on: HOP-92 NSCLC
NCI/ADR-RES ovarian = tested on: NCI/ADR-RES ovarian
OVCAR-4 ovarian = tested on: OVCAR-4 ovarian
OVCAR-3 ovarian = tested on: OVCAR-3 ovarian
MDA-MB-231 breast = tested on: MDA-MB-231 breast
NCI-H23 lung = tested on: NCI-H23 lung
U251 CNS = tested on: U251 CNS
UACC-62 melanoma = tested on: UACC-62 melanoma
A549 NSCLC = tested on: A549 NSCLC
SK-MEL-5 melanoma = tested on: SK-MEL-5 melanoma
MOLT-4 leukemia = tested on: MOLT-4 leukemia
LOX IMVI melanoma = tested on: LOX IMVI melanoma
OVCAR-8 ovarian = tested on: OVCAR-8 ovarian
DU-145 prostate = tested on: DU-145 prostate
MCF7 breast = tested on: MCF7 breast
SR leukemia = tested on: SR leukemia
HL-60(TB) leukemia = tested on: HL-60(TB) leukemia
PC-3 prostate = tested on: PC-3 prostate
OVCAR-5 ovarian = tested on: OVCAR-5 ovarian
SK-OV-3 ovarian = tested on: SK-OV-3 ovarian
SNB-19 CNS = tested on: SNB-19 CNS
NCI-H226 lung = tested on: NCI-H226 lung
EKVX NSCLC = tested on: EKVX NSCLC
786-0 renal = tested on: 786-0 renal
SF-295 CNS = tested on: SF-295 CNS
SF-268 CNS = tested on: SF-268 CNS
CAKI-1 renal = tested on: CAKI-1 renal
BT-549 breast = tested on: BT-549 breast
RXF 393 renal = tested on: RXF 393 renal
NCI-H522 lung = tested on: NCI-H522 lung
K-562 leukemia = tested on: K-562 leukemia
HCT-116 colon = tested on: HCT-116 colon
SNB-75 CNS = tested on: SNB-75 CNS
A498 renal = tested on: A498 renal
COLO 205 colon = tested on: COLO 205 colon
SK-MEL-28 melanoma = tested on: SK-MEL-28 melanoma
HCT-15 colon = tested on: HCT-15 colon

## C=C1C(=O)O[C@@H]2/C=C(/C)C3=CC(=O)[C@@](C)(C[C@H](OC(=O)/C(C)=C\C)[C@@H]12)O3
UACC-257 melanoma
  GI50: 685 nM
  TGI: 4440 nM
M14 melanoma
  GI50: 1300 nM
  TGI: 7040 nM
ACHN renal
  GI50: 658 nM
  TGI: 1430 nM
RPMI-8226 leukemia
  GI50: 867 nM
  TGI: 2370 nM
HCC-2998 colon
  GI50: 4640 nM
  TGI: 9070 nM
IGROV1 ovarian
  GI50: 3940 nM
  TGI: 9170 nM
CCRF-CEM leukemia
  GI50: 778 nM
  TGI: 2920 nM
SN12C renal
  TGI: 12500 nM
HS 578T breast
  GI50: 8010 nM
  TGI: > 32500 nM
SF-539 CNS
  GI50: 1440 nM
  TGI: 6360 nM
HT29 colon
  GI50: 1010 nM
  TGI: 3710 nM
HOP-62 NSCLC
  GI50: 6770 nM
  TGI: 19200 nM
TK-10 renal
  TGI: 1990 nM
SK-MEL-2 melanoma
  GI50: 1300 nM
  TGI: 7150 nM
UO-31 renal
  GI50: 896 nM
  TGI: 4000 nM
MALME-3M melanoma
  TGI: 5330 nM
NCI-H460 lung
  GI50: 7040 nM
  TGI: > 32500 nM
MDA-MB-435
  GI50: 1500 nM
  TGI: 10200 nM
SW-620 colon
  GI50: 946 nM
  TGI: 2610 nM
HOP-92 NSCLC
  GI50: 1170 nM
  TGI: 5150 nM
NCI/ADR-RES ovarian
  GI50: 1060 nM
  TGI: > 32500 nM
OVCAR-4 ovarian
  GI50: 1800 nM
  TGI: 6230 nM
OVCAR-3 ovarian
  TGI: 2840 nM
MDA-MB-231 breast
  GI50: 1700 nM
  TGI: 6990 nM
NCI-H23 lung
  GI50: 1520 nM
  TGI: 6540 nM
U251 CNS
  GI50: 3370 nM
  TGI: 8690 nM
UACC-62 melanoma
  GI50: 748 nM
  TGI: 2400 nM
A549 NSCLC
  GI50: 6000 nM
  TGI: 19800 nM
SK-MEL-5 melanoma
  GI50: 2410 nM
  TGI: 9160 nM
MOLT-4 leukemia
  GI50: 857 nM
  TGI: 2880 nM
LOX IMVI melanoma
  GI50: 997 nM
  TGI: 4120 nM
OVCAR-8 ovarian
  GI50: 1000 nM
  TGI: 5890 nM
DU-145 prostate
  GI50: 1500 nM
  TGI: 5580 nM
MCF7 breast
  GI50: 1120 nM
  TGI: 5550 nM
SR leukemia
  GI50: 594 nM
  TGI: 3740 nM
HL-60(TB) leukemia
  GI50: 911 nM
  TGI: 2400 nM
PC-3 prostate
  GI50: 4100 nM
  TGI: 12100 nM
OVCAR-5 ovarian
  GI50: 1670 nM
  TGI: 7810 nM
SK-OV-3 ovarian
  GI50: 10500 nM
  TGI: > 32500 nM
SNB-19 CNS
  TGI: > 32500 nM
NCI-H226 lung
  GI50: 1160 nM
  TGI: 4330 nM
EKVX NSCLC
  TGI: 8360 nM
786-0 renal
  GI50: 1130 nM
  TGI: 4130 nM
SF-295 CNS
  GI50: 5520 nM
  TGI: 13400 nM
SF-268 CNS
  GI50: 5000 nM
  TGI: 15400 nM
CAKI-1 renal
  GI50: 1100 nM
  TGI: 3800 nM
BT-549 breast
  TGI: 5340 nM
RXF 393 renal
  GI50: 648 nM
  TGI: 1580 nM
NCI-H522 lung
  GI50: 545 nM
  TGI: 1210 nM
K-562 leukemia
  GI50: 955 nM
  TGI: 4790 nM
HCT-116 colon
  GI50: 631 nM
  TGI: 1490 nM
SNB-75 CNS
  GI50: 2370 nM
  TGI: 27100 nM
A498 renal
  TGI: 13300 nM
COLO 205 colon
  GI50: 676 nM
  TGI: 1570 nM
SK-MEL-28 melanoma
  GI50: 1090 nM
  TGI: 4600 nM
HCT-15 colon
  GI50: 661 nM
  TGI: 1770 nM
